Results: US20100311714A1, “1H-IMIDAZO[4,5-c]QUINOLINONE COMPOUNDS” (priority 2009, published 2010)
Where two headings read alike, the source gives them in different places. One block for each molecule: values may come before it.

How the values were obtained:
mTOR = target: T1, mTOR (Homo sapiens, UniProt P42345); assay: Biochemical assay for m-TOR by TR-FRET
T1 construct: purchased Invitrogen Corporation (Carlsbad/Calif., USA) PV4753
In short: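 mTOR (0.5 nM) phosphorylates GFP-4EBP1 (400 nM) with 8 μM ATP at rt in 50 mM HEPES pH 7.5, 10 mM MnCl2, 50 mM NaCl, 1 mM EGTA, 1 mM DTT; compounds 0.003–10 μM final. EDTA stop with Tb-anti-p4EBP1[pT46] antibody (0.5 nM); TR-FRET read after 15 min against no-enzyme and vehicle controls.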

[1] = system: PKB Ser473 phosphorylation in Rat1-myr-HA-p110 alpha cells; assay: Reverse protein array, PKB Ser473 phosphorylation in Rat1-myr-HA-p110 alpha cells; assay type: cell-based; conditions: Rattus norvegicus, 0.5 h, 30 minutes compound incubation, read-out: p-PKB/IC50_alpha
[2] = system: PKB Ser473 phosphorylation in Rat1-myr-HA-p110 beta cells; assay: Reverse protein array, PKB Ser473 phosphorylation in Rat1-myr-HA-p110 beta cells; assay type: cell-based; conditions: Rattus norvegicus, 0.5 h, 30 minutes compound incubation, read-out: p-PKB/IC50_beta

T1 sequence (P42345 1360-2549 limits assumed): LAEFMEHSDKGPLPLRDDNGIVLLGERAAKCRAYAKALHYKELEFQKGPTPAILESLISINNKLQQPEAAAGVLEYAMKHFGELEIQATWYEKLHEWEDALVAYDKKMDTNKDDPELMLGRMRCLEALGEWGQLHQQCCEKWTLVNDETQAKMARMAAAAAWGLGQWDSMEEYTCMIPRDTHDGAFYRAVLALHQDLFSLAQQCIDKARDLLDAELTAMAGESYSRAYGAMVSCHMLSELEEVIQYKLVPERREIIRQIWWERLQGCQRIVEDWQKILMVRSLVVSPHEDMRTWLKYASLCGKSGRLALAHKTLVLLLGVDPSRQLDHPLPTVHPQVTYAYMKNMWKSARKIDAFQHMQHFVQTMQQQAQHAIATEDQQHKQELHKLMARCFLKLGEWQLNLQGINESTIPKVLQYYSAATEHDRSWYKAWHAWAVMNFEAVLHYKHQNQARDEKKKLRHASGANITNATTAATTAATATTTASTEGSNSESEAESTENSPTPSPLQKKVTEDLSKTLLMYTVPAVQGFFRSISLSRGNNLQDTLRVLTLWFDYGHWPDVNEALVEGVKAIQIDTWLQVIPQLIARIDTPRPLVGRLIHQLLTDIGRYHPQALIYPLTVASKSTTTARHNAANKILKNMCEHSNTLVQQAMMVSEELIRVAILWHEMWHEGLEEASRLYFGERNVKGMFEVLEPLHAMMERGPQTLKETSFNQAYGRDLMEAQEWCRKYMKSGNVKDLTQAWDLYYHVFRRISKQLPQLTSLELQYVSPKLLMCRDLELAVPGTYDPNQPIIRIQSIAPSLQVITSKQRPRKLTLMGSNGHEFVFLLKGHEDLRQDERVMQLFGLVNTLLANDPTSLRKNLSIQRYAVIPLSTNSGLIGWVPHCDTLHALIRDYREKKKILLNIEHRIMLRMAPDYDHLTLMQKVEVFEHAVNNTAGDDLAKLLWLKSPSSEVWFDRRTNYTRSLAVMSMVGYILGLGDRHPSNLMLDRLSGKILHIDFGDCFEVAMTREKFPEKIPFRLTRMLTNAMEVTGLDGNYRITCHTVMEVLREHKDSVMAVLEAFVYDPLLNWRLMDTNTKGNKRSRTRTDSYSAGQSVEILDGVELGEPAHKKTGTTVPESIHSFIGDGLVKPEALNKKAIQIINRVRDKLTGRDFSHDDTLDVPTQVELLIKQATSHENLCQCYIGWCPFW

Structure (SMILES): COc1ncccc1-n1c(=O)n(C)c2cnc3ccc(-c4cnc(N(C)C)nc4)cc3c21 [Example 1.9, 8-(2-Dimethylamino-pyrimidin-5-yl)-1-(2-methoxy-pyridin-3-yl)-3-methyl-1,3-dihydro-imidazo[4,5-c]quinolin-2-one]
- IC50 (mTOR; read-out: mTOR/IC50): 14 nM
- IC50 [1]: 57.6 nM
- IC50 [2]: 60.3 nM

Structure (SMILES): COCCOc1cc(-c2ccc3ncc4c(c3c2)n(-c2ccc(OC)nc2OC)c(=O)n4C)cnc1C [Example 8.9, 1-(2,6-Dimethoxy-pyridin-3-yl)-8-[5-(2-methoxy-ethoxy)-6-methyl-pyridin-3-yl]-3-methyl-1,3-dihydro-imidazo[4,5-c]quinolin-2-one]
- IC50 (mTOR; read-out: EPK_mTOR/IC50): 10 nM
- IC50 [1]: 24.9 nM
- IC50 [2]: 39.5 nM

Structure (SMILES): CNc1ncc(-c2ccc3ncc4c(c3c2)n(-c2ccc(NC(=O)COC)nc2C)c(=O)n4C)cn1 [Example 20.3, 2-Methoxy-N-{6-methyl-5-[3-methyl-8-(2-methylamino-pyrimidin-5-yl)-2-oxo-2,3-dihydro-imidazo[4,5-c]quinolin-1-yl]-pyridin-2-yl}-acetamide]
- IC50 (mTOR; read-out: EPK_mTOR/IC50): 59 nM
- IC50 [1]: 6.6 nM
- IC50 [2]: 16.3 nM

Structure (SMILES): CCOc1ccc(-c2ccc3ncc4c(c3c2)n(-c2cncc(C)c2)c(=O)n4C)cn1 [Example 17.1, 8-(6-Ethoxy-pyridin-3-yl)-3-methyl-1-(5-methyl-pyridin-3-yl)-1,3-dihydro-imidazo[4,5-c]quinolin-2-one]
- IC50 (mTOR; read-out: EPK_mTOR/IC50): 484 nM
- IC50 [1]: 53.4 nM
- IC50 [2]: 202 nM

The next lines start with the values.

- IC50 (mTOR; read-out: EPK_mTOR/IC50): 53 nM
- IC50 [1]: 21.8 nM
- IC50 [2]: 78.3 nM
Structure (SMILES): CCNc1cc(-c2ccc3ncc4c(c3c2)n(-c2cnc(F)cc2C)c(=O)n4C)cnc1C [Example 16.2, 8-(5-Ethylamino-6-methyl-pyridin-3-yl)-1-(6-fluoro-4-methyl-pyridin-3-yl)-3-methyl-1,3-dihydro-imidazo[4,5-c]quinolin-2-one]

- IC50 (mTOR; read-out: EPK_mTOR/IC50): 426 nM
- IC50 [1]: 20.1 nM
- IC50 [2]: 50.6 nM
Structure (SMILES): CCOCc1cc(-c2ccc3ncc4c(c3c2)n(-c2ccc(F)nc2C)c(=O)n4C)cnc1N [Example 7.15, 8-(6-Amino-5-ethoxymethyl-pyridin-3-yl)-1-(6-fluoro-2-methyl-pyridin-3-yl)-3-methyl-1,3-dihydro-imidazo[4,5-c]quinolin-2-one]

- IC50 (mTOR; read-out: EPK_mTOR/IC50): 6 nM
- IC50 [1]: 5.2 nM
- IC50 [2]: 8.1 nM
Structure (SMILES): CCNc1cc(-c2ccc3ncc4c(c3c2)n(-c2ccc(C)nc2C)c(=O)n4C)cnc1C [Example 14.6, 1-(2,6-Dimethyl-pyridin-3-yl)-8-(5-ethylamino-6-methyl-pyridin-3-yl)-3-methyl-1,3-dihydro-imidazo[4,5-c]quinolin-2-one]

- IC50 (mTOR; read-out: EPK_mTOR/IC50): 10 nM
- IC50 [1]: 5.2 nM
- IC50 [2]: < 4.57 nM
Structure (SMILES): CCN(C)c1ccc(-n2c(=O)n(C)c3cnc4ccc(-c5ccc(NC)nc5)cc4c32)c(C)n1 [Example 12.1, 1-[6-(Ethyl-methyl-amino)-2-methyl-pyridin-3-yl]-3-methyl-8-(6-methylamino-pyridin-3-yl)-1,3-dihydro-imidazo[4,5-c]quinolin-2-one]

- IC50 (mTOR; read-out: EPK_mTOR/IC50): 80 nM
- IC50 [1]: 11 nM
- IC50 [2]: 22.5 nM
Structure (SMILES): CCOc1cc(-c2ccc3ncc4c(c3c2)n(-c2cccnc2C)c(=O)n4C)cnc1C [Example 2.22, 8-(5-Ethoxy-6-methyl-pyridin-3-yl)-3-methyl-1-(2-methyl-pyridin-3-yl)-1,3-dihydro-imidazo[4,5-c]quinolin-2-one]

- IC50 (mTOR; read-out: EPK_mTOR/IC50): 704 nM
- IC50 [1]: 30.7 nM
- IC50 [2]: 141 nM
Structure (SMILES): CNc1ccc(-c2ccc3ncc4c(c3c2)n(-c2cnc(F)cc2C)c(=O)n4C)cn1 [Example 16.4, 1-(6-Fluoro-4-methyl-pyridin-3-yl)-3-methyl-8-(6-methylamino-pyridin-3-yl)-1,3-dihydro-imidazo[4,5-c]quinolin-2-one]

- IC50 (mTOR; read-out: EPK_mTOR/IC50): 9 nM
- IC50 [1]: 6.9 nM
- IC50 [2]: 11.2 nM
Structure (SMILES): Cc1nc(N(C)C)ccc1-n1c(=O)n(C)c2cnc3ccc(-c4cncc(N)c4)cc3c21 [Example 19.5, 8-(5-Amino-pyridin-3-yl)-1-(6-dimethylamino-2-methyl-pyridin-3-yl)-3-methyl-1,3-dihydro-imidazo[4,5-c]quinolin-2-one]
